The Biogen ADME set (Fang et al. 2023)
In brackets after ≈: the same amount, converted by molar mass.

Conditions: for aqueous solubility: pH 6.8

Compound	intrinsic clearance, human liver microsomes	intrinsic clearance, rat liver microsomes	MDR1-MDCK efflux ratio	aqueous solubility
Clc1cnc(NCC2(c3ccncc3)CC2)nc1	26 mL/min/kg	472 mL/min/kg	–	–
Cc1c(NC(=O)c2cc(C(N)=O)nc3cc(F)ccc23)c(C(F)(F)F)nn1Cc1ccc(C#N)cc1	–	–	82.1	0.18 µg/mL (≈ 0.363 µM)
O=C(O)c1cc(Cl)cc2cccnc12	≤ 4.74 mL/min/kg	≤ 10.7 mL/min/kg	–	26.9 µg/mL (≈ 129 µM)
Fc1cccc(CN2CCN(c3ncccn3)CC2)c1	111 mL/min/kg	1120 mL/min/kg	0.527	38 µg/mL (≈ 140 µM)
O=C(NC1CCCC1)c1cc(C2CC2)nc2ccccc12	61.9 mL/min/kg	140 mL/min/kg	0.695	18.6 µg/mL (≈ 66.3 µM)
Oc1ccc(-c2noc(C3CC3)n2)cc1	–	–	0.674	49 µg/mL (≈ 242 µM)
O=c1n(Cc2ccncc2)nc2n1-c1cc(Cl)ccc1C1=NCCN12	20 mL/min/kg	143 mL/min/kg	–	–
Cc1cc(CN2CC(O)(CC#N)C2)ccc1F	15 mL/min/kg	703 mL/min/kg	0.602	–
COc1ccc(-c2nnc3ccc(C(F)(F)F)cn23)cc1OC(C)C	31.2 mL/min/kg	132 mL/min/kg	1.11	22.9 µg/mL (≈ 65.2 µM)
CNCc1cc(N(C)C)nc(C2CCCN2C(=O)c2ccccc2-c2ccccc2)n1 (centres undefined)	30.8 mL/min/kg	228 mL/min/kg	65.4	–
Cc1nn(C)c2nc(C(C)C)cc(C(=O)O)c12	≤ 4.74 mL/min/kg	≤ 10.7 mL/min/kg	–	32.5 µg/mL (≈ 139 µM)
CC1(c2nnc(-c3cc(-c4ccccc4)n[nH]3)o2)CCOCC1	13.5 mL/min/kg	179 mL/min/kg	1.21	18.4 µg/mL (≈ 59.1 µM)
Cc1ccc(NC(=O)c2ccn(C(C)C)n2)cc1N1C(=O)CCC1=O	≤ 4.74 mL/min/kg	19.2 mL/min/kg	–	–
Cn1cc(C(=O)O)c(C2CCCCC2)n1	≤ 4.74 mL/min/kg	≤ 10.7 mL/min/kg	1.04	33.6 µg/mL (≈ 161 µM)
COc1ccc(-n2c(Cn3cnc(C#N)n3)nc3ccccc32)cc1	5 mL/min/kg	664 mL/min/kg	1.37	36 µg/mL (≈ 109 µM)
CN(C(=O)[C@@H](N)Cc1ccccc1)c1ccccc1	≤ 4.74 mL/min/kg	392 mL/min/kg	–	–
Cc1nc(CN2CCC(CNC(=O)COc3ccccc3Cl)CC2)c[nH]1	≤ 4.74 mL/min/kg	58.1 mL/min/kg	5.32	–
Cc1cccc(-c2ncc(CNCc3ccccc3-n3cccn3)cn2)c1	303 mL/min/kg	3450 mL/min/kg	0.593	22.4 µg/mL (≈ 62.9 µM)
COc1cc2nn(CCC(C)(C)O)cc2cc1NC(=O)c1ccn(C(F)F)n1	18.7 mL/min/kg	≤ 10.7 mL/min/kg	10.2	–
Fc1ccc(CN2CCCN(c3ccc4nnnn4n3)CC2)cc1	31.9 mL/min/kg	620 mL/min/kg	0.606	–
CCN(Cc1ccccc1)C(=O)c1cccnc1N	≤ 4.74 mL/min/kg	174 mL/min/kg	0.65	36.7 µg/mL (≈ 144 µM)
Cc1cnc(CS(=O)(=O)C2CCCC2)cn1	–	–	–	36.2 µg/mL (≈ 151 µM)
CCNC(=O)c1cc(C2CC2)nc2c1c(C)nn2-c1ccccn1	25.8 mL/min/kg	70.7 mL/min/kg	3.78	54.1 µg/mL (≈ 168 µM)
CCOC(=O)CNC(=O)c1ccc(O)cc1O	34.3 mL/min/kg	114 mL/min/kg	0.704	36.2 µg/mL (≈ 151 µM)
COc1ccc(C)cc1-n1ccc(C(=O)NC(C)C)n1	62.5 mL/min/kg	334 mL/min/kg	0.545	35.7 µg/mL (≈ 131 µM)
CN(Cc1ccncc1)Cc1cc2ccccc2nc1O	15.4 mL/min/kg	222 mL/min/kg	2.51	48.6 µg/mL (≈ 174 µM)
COCC1(CNC(=O)c2ccc(-n3cccn3)cc2)CCC1	18.2 mL/min/kg	492 mL/min/kg	0.596	–
O=C(Nc1cnn(-c2ncccn2)c1)C1CCCCC1	≤ 4.74 mL/min/kg	73.1 mL/min/kg	–	–
COC(=O)N1CCCN(C(=O)c2ccc(-c3ccccc3Cl)o2)CC1	174 mL/min/kg	4850 mL/min/kg	0.661	58.9 µg/mL (≈ 162 µM)
CN(Cc1nncn1C)C1CCN(c2ccccc2F)CC1	≤ 4.74 mL/min/kg	89.4 mL/min/kg	2.06	–
